Measured values: PubChem BioAssay (NCI)
“And” between values parts separate entries of the source, which are not always exact repeats. Identical values can stand only once.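 Test compounds were applied to cells in 96-well plates for 48 hours at 5 doses. The concentration for 50% growth inhibition is given as GI50. TGI denotes the concentration required for complete inhibition of growth.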

How the values were obtained:
Test in all cases: NCI-60 cell line screen, 48 h
DU-145 prostate = tested on: DU-145 prostate
SF-539 CNS = tested on: SF-539 CNS
HCT-116 colon = tested on: HCT-116 colon
UACC-62 melanoma = tested on: UACC-62 melanoma
UACC-257 melanoma = tested on: UACC-257 melanoma
NCI/ADR-RES ovarian = tested on: NCI/ADR-RES ovarian
NCI-H226 lung = tested on: NCI-H226 lung
ACHN renal = tested on: ACHN renal
LOX IMVI melanoma = tested on: LOX IMVI melanoma
UO-31 renal = tested on: UO-31 renal

Row | SMILES | TGI (DU-145 prostate) [µM] | TGI (SF-539 CNS) [µM] | TGI (HCT-116 colon) [µM] | TGI (UACC-62 melanoma) [µM] | TGI (UACC-257 melanoma) [µM] | TGI (NCI/ADR-RES ovarian) [µM] | TGI (NCI-H226 lung) [µM] | TGI (ACHN renal) [µM] | TGI (LOX IMVI melanoma) [µM] | TGI (UO-31 renal) [µM] | GI50 (DU-145 prostate) | GI50 (SF-539 CNS) [µM] | GI50 (HCT-116 colon) [µM] | GI50 (UACC-62 melanoma) | GI50 (UACC-257 melanoma) [µM] | GI50 (NCI/ADR-RES ovarian) [µM] | GI50 (NCI-H226 lung) | GI50 (ACHN renal) [µM] | GI50 (LOX IMVI melanoma) [µM] | GI50 (UO-31 renal) [µM]
1 | OC1(C(O)(c2ccc(-c3ccccc3)cc2)c2ccc(-c3ccccc3)cc2)CCCCC1 | > 100 | > 100 | > 100 | > 100 | > 100 | > 100 | > 100 | > 100 | > 100 | > 100 | – | – | – | – | – | – | – | – | – | –
2 | C=C1[C@@H](C)[C@H]2[C@H](Cc3ccccc3)NC(=O)[C@]23OC(=O)/C=C/[C@H](O)CCC[C@@H](C)C/C=C/[C@H]3[C@@H]1O | > 100 | 43.8 | > 100 | 66.2 | 59.9 | 91.1 | 23.4 | > 57.4 | 39.6 | 4.12 | – | – | – | – | – | – | – | – | – | –
3 | COc1ccccc1-[n+]1cc(-c2ccc(-c3ccccc3)cc2)n2c1CCCCC2 | 14.8 | 13.2 | 11.9 | 1.8 | 12.9 | 60.4 | 13.4 | 11.3 | 8.1 | 11.1 | 0.444 µM | 0.348 | 0.231 | 0.159 µM | 0.318 | 19.8 | 0.773 µM | 2.45 | 0.322 | 2.19
4 | O=C1CCC(Cc2ccc(Cl)cc2Cl)C(=O)N1 (stereo not given) | > 100 | > 100 | > 100 | > 100 | > 100 | > 100 | > 100 | > 100 | > 100 | > 100 | – | – | – | – | – | – | – | – | – | –
5 | NC(=O)c1cnc(N[C@@H]2CCCC[C@@H]2N)nc1Nc1cccc(-n2nccn2)c1 | 15.8 | 17.2 | 7.7 | 20.3 | 4.49 | 30.6 | 17.8 | 11.1 | 6.12 | 14.7 | 3.84 µM | 5.44 | 2.3 | 5.48 µM | 2.02 | 14.6 | 4.73 µM | 2.69 | 2.11 | 3.32
6 | C/C(=N/S(=O)(=O)c1ccc(Cl)c(Cl)c1)OCC(C)(C)C | > 100 | > 100 | > 100 | > 100 | > 100 | > 100 | > 100 | > 100 | > 100 | > 100 | – | – | – | – | – | – | – | – | – | –
7 | O=Cc1c(-c2cc(O)ccc2O)nc2sccn12 | 49.2 | 52 | 27.3 | 32 | 95.8 | 48.5 | 37.7 | 22.6 | 33.5 | 2.38 | 22.6 µM | 20.3 | 14 | 10.6 µM | 29.9 | 16 | 14.7 µM | 9.85 | 8.94 | 1.05
8 | CC1=C(/C=C/C(C)=C\C=C\C(C)=C\C(=O)Nc2ccc3c(c2)OCO3)C(C)(C)CCC1 | > 100 | > 100 | > 100 | > 100 | > 100 | > 100 | > 100 | > 100 | > 100 | > 100 | > 100 µM | 51.3 | 29.5 | > 100 µM | 29.4 | 73 | > 100 µM | 89.1 | 16.8 | > 100
9 | CC12CCC3C(CC=C4CC(O)CCC43C)C1C/C(=C\N1CCCC1)C2=O (stereo not given) | > 100 | > 100 | > 100 | > 100 | > 100 | > 100 | > 100 | > 100 | > 100 | > 100 | > 100 µM | > 100 | 69.3 | 41.2 µM | > 100 | > 100 | > 100 µM | 91.8 | > 100 | 67.2
10 | O=C(/C=C/c1cccnc1)NCCCCC1CCN(C(=O)c2ccccc2)CC1 | > 100 | > 100 | > 100 | > 100 | > 100 | > 100 | > 100 | > 100 | > 100 | > 100 | 0.0234 µM and < 0.0315 µM | < 0.01 | < 0.01 | 70.3 µM and > 58 µM | > 100 | < 0.0135 | > 100 µM and 62.3 µM | > 100 | > 100 | > 100
11 | CC(=O)OC[C@H]1O[C@@H](n2ccc(=O)[nH]c2=O)[C@H](OC(C)=O)[C@@H]1OC(C)=O | > 100 | > 100 | > 100 | > 100 | > 100 | > 100 | > 100 | > 100 | > 100 | > 100 | > 100 µM | > 100 | > 100 | > 100 µM | > 100 | > 100 | > 100 µM | > 100 | > 100 | > 100
12 | CN(C)CCCn1c2c(c3cnccc3c1=O)C(=O)c1ccccc1-2 | 3.43 | 2.9 | 11.7 | 1.46 | 3.21 | 10.8 | 2.85 | 3.63 | 4.18 | 2.55 | 0.49 µM | 0.377 | 0.245 | 0.309 µM | 0.486 | 0.483 | 0.388 µM | 0.145 | 0.303 | 0.183
13 | CCN(Cc1cccc(OC)c1)c1ccc(CO)c(Cl)c1 | 67.5 | 40.5 | 11.2 | 0.48 | 0.295 | 43.4 | 0.231 | 96.8 | 27.9 | 45.1 | 21.1 µM | 19 | 0.0731 | 0.0839 µM | 0.121 | 13.7 | 0.0957 µM | 26.5 | 14.5 | 8.4
14 | CSc1nc2c(c(=O)[nH]1)N=C1c3ccccc3C(=O)C1C(c1ccc(F)cc1)N2 (stereo not given) | 42.2 | 29.4 | 19.9 | 48.9 | > 100 | 33.1 | 45.6 | 36.4 | 30 | > 100 | 16.2 µM | 8.9 | 7.23 | 3.04 µM | 26 | 6.42 | 15.3 µM | 11.6 | 8.78 | 16.3
15 | CC(C)(C)N1CCC1C(N)=O (stereo not given) | > 100 | > 100 | > 100 | > 100 | > 100 | > 100 | > 100 | > 100 | > 100 | > 100 | > 100 µM | > 100 | > 100 | > 100 µM | > 100 | > 100 | > 100 µM | > 100 | > 100 | > 100
16 | O=c1c2ccccc2c2ccccc2c(=O)n1-c1cc2c3ccccc3ccc2c2ccccc12 | > 100 | > 100 | > 100 | > 100 | > 100 | > 100 | > 100 | > 100 | > 100 | > 100 | – | – | – | – | – | – | – | – | – | –
17 | COc1ccc(-n2c(SCc3cc(OC)c(OC)c(OC)c3)nc3ccc(C)cc3c2=O)c(OC)c1 | > 100 | 7.82 | > 100 | > 100 | > 100 | > 100 | > 100 | > 100 | > 100 | > 100 | 3.72 µM | 2.88 | 3.85 | 5.19 µM | 7.81 | 2.68 | > 100 µM | 7.49 | 5.23 | 2.76
18 | Cc1ccc(C(=O)Nc2ccc(CN3CCN(C)CC3)c(C(F)(F)F)c2)cc1C#Cc1cnc(N)cc1C#N | 0.838 | 0.926 | 0.642 | 0.452 | 0.834 | 1.68 | 4.95 | 0.555 | 0.522 | 0.442 | 0.127 µM | 0.277 | 0.0852 | 0.031 µM | 0.132 | 0.27 | 0.155 µM | 0.074 | 0.0394 | 0.0949
19 | COP(=O)(OC)C(NC(c1ccccc1)c1ccccc1)c1ccc2c(c1)OCO2 (stereo not given) | 60.5 | 36 | 35.3 | 32.2 | 89.7 | > 100 | 66.6 | > 100 | 31.4 | 53.9 | 26.6 µM | 20.2 | 16.3 | 16 µM | 31.4 | 30.3 | 30.7 µM | 29.1 | 16.4 | 21.8
20 | CCCC1c2c(ccc3ccccc23)Oc2ccc3ccccc3c21 | > 100 | > 100 | > 100 | > 100 | 70.8 | > 100 | > 100 | > 100 | > 100 | > 100 | – | – | – | – | – | – | – | – | – | –
21 | O=C(O)c1ccc2c(c1)Cc1cc([N+](=O)[O-])ccc1-2 | > 100 | > 100 | > 100 | > 100 | > 100 | > 100 | > 100 | > 100 | > 100 | > 100 | – | – | – | – | – | – | – | – | – | –
22 | C[C@]12CCC3[C@@H](C[C@@H]4SC(Nc5ccccc5)=N[C@@]45CC(=O)CC[C@]35C)[C@@H]1CCC2=O (stereo not given in full) | 40.9 | 13.3 | 4.16 | 29.6 | 94.5 | > 100 | 45 | 29.5 | 10.8 | 19.4 | 4.34 µM | 3.04 | 1.91 | 9.54 µM | 23.8 | 6.34 | 7.36 µM | 7.81 | 3.22 | 5.26
23 | Cc1ccc2c(c1)nc(C(=O)c1ccco1)c(C(F)(F)F)[n+]2[O-] | > 100 | > 100 | > 100 | > 100 | > 100 | > 100 | > 100 | > 100 | > 100 | > 100 | > 100 µM | > 100 | > 100 | 89.1 µM | 63.4 | 57 | > 100 µM | > 100 | > 100 | 47.2
24 | C=C1C(=O)O[C@H]2[C@H]1CC/C(COC(=O)NCc1cc3ccccc3[nH]1)=C\CC[C@@]1(C)O[C@@H]21 | 2.93 | 3.26 | 2.77 | 3.2 | 4.61 | 8.06 | 3.15 | 2.75 | 2.61 | 2.43 | 1.52 µM | 1.73 | 1.37 | 1.62 µM | 2.11 | 2.52 | 1.6 µM | 1.38 | 1.26 | 1.2
25 | Cc1ccc(C(CN(C)C)C(=O)c2ccccc2)cc1 (stereo not given) | 5.12 | 10.7 | 1.83 | 4.33 | 19.2 | 12.6 | 20.9 | 3.18 | 2.27 | 3.86 | 1.93 µM | 3.09 | 0.514 | 1.85 µM | 5.74 | 2.89 | 2.97 µM | 1.63 | 1.01 | 1.86
26 | COc1ccc(/C=C/C(=O)c2cc3c(N)c(C(=O)Nc4ccccc4Cl)sc3nc2C)cc1 | > 50 | 9.45 | > 50 | 8.93 | 13.5 | 16 | 17.4 | 10.8 | > 50 | 3.94 | 2.78 µM | 2.04 | 1.11 | 0.391 µM | 1.19 | 1.62 | 2.43 µM | 1.74 | 8.11 | 1.17
27 | Cc1c(C#N)cccc1-c1cc(-c2cn(Cc3cccc(C(C)(C)O)n3)nn2)nc(N)n1 | > 100 | > 100 | > 100 | 57.9 | > 100 | > 100 | 91.9 | > 100 | > 100 | > 100 | 37.1 µM | 39.6 | 32.1 | 12 µM | 27.7 | 24.1 | 22.7 µM | 28.3 | 28.2 | 10.7
